{
  "source": "patent US11826341B2",
  "about": "“Baicalein analogs for use in neuroprotection and regulation of immune reactivity” (THE HONG KONG POLYTECHNIC UNIVERSITY, priority 2021, dated 2023)",
  "key": {"HMC-3": {"system": "HMC-3", "assay": "Intracellular calcium after ATP stimulation", "format": "cell-based, human", "settings": "10 μM pretreatment 24 hrs; 50 μM ATP stimulation", "quoted_text": "(A) Changes of [Ca^2+]i in cultured HMC-3 with pretreatment of vehicle or 10 μM baicalein for 24 hrs. […] (B) Quantification of [Ca^2]i levels in different treatment groups after stimulation (n=6 cultures/group, and 10-20 neurons were recorded from each group). […] To verify the effect of baicalein on the influence of microglia state, the measurement of intracellular calcium concentration [Ca2+]I was applied. After adding 50 μM ATP to microglial cells, the influx of [Ca2+]I was triggered immediately in naïve group."}, "[1]": {"system": "primary mouse brain microglia", "assay": "PI3K and NFkB immunostaining in LPS and ATP challenged microglia", "format": "cell-based", "settings": "10 μM; LPS and ATP challenged mouse microglial cells", "method": "(§1) FIG. 5 Baicalein suppresses PI3K and NFkB pathway in both primary mouse brain microglia and human microglia HMC3 cell line in vitro. (A) Representative bright field images of primary mouse brain microglia and images immunostained with DAPI (blue), p85 PI3K (red) and p65 NFkB (green) antibody in LPS and ATP plus vehicle or 10 μM baicalein delivered group respectively. Scale bar=40 μm (B) Representative human microglia images immunostained with DAPI (blue), p85 PI3K (red) and p65 NFkB (green) antibody in LPS and ATP plus vehicle or 10 μM baicalein delivered group respectively. Error bar=SEM. *P<0.05; **P<0.01. Scale bar=100 μm.\n(§2) To further understand if the effects of suppressing microglia activation and cytokines release are related with NFkB and PI3K pathway, we examine the performance of baicalein in primary mouse microglia and human microglial cell line HMC-3."}, "[2]": {"system": "human microglia HMC3 cell line", "assay": "PI3K and NFkB immunostaining in LPS and ATP challenged microglia", "format": "cell-based", "settings": "10 μM; LPS and ATP challenged human microglial cells", "method": "as §1, §2"}, "[3]": {"system": "human microglia HMC3 cell line", "assay": "qPCR of pro-inflammatory genes after LPS and ATP challenge", "format": "cell-based", "settings": "1 μM or 10 μM for 42 hours after LPS and ATP", "quoted_text": "(§5) (A) Quantification the averaged pixel density of selected cytokines produced by human microglia cell line HMC-3 culture. […] Error bar=SEM. *P<0.05; **P<0.01. Scale bar=100 μM. One-way ANOVA. […] After 6 hours LPS stimulation and additional 30 mins ATP challenge, vehicle, 1 μM or 10 μM baicalein was delivered to the culture media for an additional 42 hours. The culture media from different groups was collected for the cytokine array, while the cells were lysed for qPCR to identify the mRNA level."}, "purified mouse RGCs": {"system": "purified mouse RGCs", "assay": "Purified RGC culture survival", "format": "cell-based", "settings": "48 hours, vehicle 35.8+/−1.3%", "method": "(§3) (A) representative photomicrographs showing Brn-3a staining a whole-mounted retina from four weeks after ischemia injury in vehicle, 10 μM or 100 μM baicalein group; (B) bar graph quantifying the number of survived RGCs in 4 weeks post-injury retina from vehicle, 10 μM or 100 μM baicalein group; (C) bar graph the number of live primary RGC survival rate in vehicle, 1 μM baicalein group. Bar=20 μm. *P<0.05; **P<0.01 value was statistically analyzed by one-way ANOVA.\n(§4) Example 1—Baicalein improves RGCs survival in vitro culture or after ischemia/reperfusion damages. To study the effect of baicalein on retinal neurons, we carried out in vitro RGC cultures and in vivo studies of RGCs survival in experimental models of retinal ischemia/reperfusion injury. RGC density dropped from 3,901+/−145 cells/mm^2 to 2,314+/−383 cells/mm^2 at 4 weeks following ischemia/reperfusion injury. […] Moreover, purified mouse RGCs were cultured with vehicle, 1 μM or 10 μM Baicalein for 48 hours."}, "[4]": {"system": "human microglia HMC3 cell line", "assay": "Cytokine array of culture media after LPS and ATP challenge", "format": "cell-based", "settings": "1 μM or 10 μM for 42 hours after 6 hours LPS and 30 mins ATP", "quoted_text": "as §5"}, "retinal microglia": {"system": "retinal microglia", "assay": "qPCR of activated microglia markers and pro-inflammatory cytokines in retina after ischemia/reperfusion", "format": "in vivo, mice", "settings": "100 μM", "quoted_text": "Quantifications of qPCR assay showing the relative expression of (B) activated microglia markers and (C) pro-inflammatory cytokines in normal mice, and mice at 1 wk and 4 wks post ischemia/reperfusion retina from vehicle or 100 μM Ba given group. Error bar-SEM. *P<0.05."}, "[5]": {"system": "ischemia/reperfusion mice", "settings": "mouse, in vivo", "quoted_text": "The results of electroretinogram (ERG) and optomotor response (OMR) measurements were used to determine the changes of visual functions after ischemia/reperfusion damages. For ERG measurement, positive scotopic threshold response (pSTR), scotopic a- and b-wave, M-cone and 10 Hz flicker amplitudes were obtained from the three experimental groups (i.e. vehicle, 10 μM and 100 μM baicalein) at baseline, 1 wk, 2 wks and 4 wks post-ischemia/reperfusion injury (FIGS. 2A, 2B, 2C, 2D, 2E, 2F, 2G, 2H, 2I and 2J). […] At the same time, the electrical signals from M-cone and 10 Hz-flicker stimulus were also captured (FIGS. 2F, 2G, 2H, 2I and 2J)."}, "RGCs": {"system": "RGCs", "assay": "RGC survival in vivo after retinal ischemia/reperfusion injury (Brn-3a whole-mount retina)", "design": "species or system mice", "settings": "4 weeks after ischemia/reperfusion, injured control 2,314+/−383, uninjured 3,901+/−145", "method": "as §3, §4"}, "CD4+ T cells": {"system": "CD4+ T cells", "assay": "Flow cytometry of CD4+ T cells in retina and superior cervical lymph nodes after ischemia/reperfusion", "format": "in vivo, mice", "settings": "100 μM", "quoted_text": "(A) 1 wk representative flow images and (B) quantification of the CD4+ cell percentage in the retina at 1 wk and 4 wks timepoint. Flow cytometry quantification of frequencies of subsets of CD4+ T cells in the draining LNs of the eye taken from mice at 1 wk (C) and 4 wks (D) after acute ischemic injury in vehicle or 100 μM baicalein given group. Shown were percentages of CD4+ T cells that expressed IFN-γ, IL-17, IL-4, IL-10 or TGF-β among fresh-isolated total LN lymphocytes. […] Th1, Th2, Th17, and Treg cells, again were divided based on the expression profile of hallmark cytokines: IFN-γ (TH1), IL-4 (TH2), IL-10 (TH2), IL-17 (TH17), and TGF-β (Treg)^16."}, "[6]": {"system": "ischemia/reperfusion mice", "assay": "Optomotor response (OMR) after ischemia/reperfusion injury", "format": "in vivo", "quoted_text": "(K) Graphs showing contrast sensitivity (CS) and (L) visual acuity (VA) of optomotor response (OMR) in mice received ischemia/reperfusion and intravitreal injections of vehicle, 10 μM or 100 μM baicalein. Error bar=SEM. *P<0.05; **P<0.01."}, "[7]": {"settings": "100 μM weekly intravitreal, 4 weeks after ischemia"}},
  "note": "Entries after “also recorded” stand apart in the source; their conditions may differ.",
  "data": [
    {"compound": "O=c1cc(-c2ccccc2)oc2cc(O)c(O)c(O)c12", "note": "[baicalein, 5,6,7-trihydroxyflavone]", "values": [
      {"measurement": "elevation of intracellular calcium [Ca2+]i", "setting": "HMC-3", "result": "delayed Ca^2+ influx with reduced magnitude; also recorded: suppressed effectively"},
      {"measurement": "PI3K and NFkB pathway activation", "setting": "[1]", "result": "effectively reduce"},
      {"measurement": "PI3K and NFkB pathway activation", "setting": "[2]", "result": "effectively reduce"},
      {"measurement": "IL-6 expression level", "setting": "[3]", "result": "significant suppression"},
      {"measurement": "expression of IL-10 and TNFα", "setting": "[3]; vs vehicle group", "result": "dramatically dropped"},
      {"measurement": "mRNA fold changes of IL-1β and TNFα", "setting": "[3]; vs vehicle group", "result": "consistent anti-inflammation effects"},
      {"measurement": "RGC survival rate", "setting": "purified mouse RGCs; 1 μM", "result": "42.0+/−1.2%"},
      {"measurement": "RGC survival rate", "setting": "purified mouse RGCs; 10 μM", "result": "41.1+/−1.9%"},
      {"measurement": "release of pro-inflammatory factors (CCL2, Cxcl10, IL-1α, IL-10, TNFα, etc)", "setting": "[4]", "result": "largely draw the release of pro-inflammatory factors to the resting level"},
      {"measurement": "mRNA levels of activated microglia markers Iba-1, YM-1 and Nox2", "setting": "retinal microglia; retina 1- and 4-week post injury", "result": "relatively low mRNA levels"},
      {"measurement": "pro-inflammatory cytokines CCL2, IL-1α (qPCR)", "setting": "retinal microglia; retina, vs vehicle group", "result": "down-regulated"},
      {"measurement": "Scotopic ERG a wave and b wave (bipolar cells)", "setting": "[5]", "result": "protective effects"},
      {"measurement": "RGC density", "setting": "RGCs; 10 μM intravitreal injection day 1 after injury", "result": "3,480+/−197 cells/mm^2"},
      {"measurement": "RGC density", "setting": "RGCs; 100 μM intravitreal injection day 1 after injury", "result": "3,604+/−137 cells/mm^2"},
      {"measurement": "IFNγ (TH1) CD4+ T cells in superior cervical LNs", "setting": "CD4+ T cells; 1 and 4 weeks after ischemic injury", "result": "significantly inhibited"},
      {"measurement": "IL-10 (TH2) expression in superior cervical LNs", "setting": "CD4+ T cells; 4-week post-injury", "result": "lower than that of vehicle-treated"},
      {"measurement": "IL-4 (TH2) level in superior cervical LNs", "setting": "CD4+ T cells; 4-week time point", "result": "lower than vehicle group"},
      {"measurement": "number of infiltrated T cells in the retina", "setting": "CD4+ T cells; after ischemia/reperfusion injury", "result": "decrease"},
      {"measurement": "visual acuity", "setting": "[6]; 10 μM intravitreal, after ischemia injury", "result": "improvement"},
      {"measurement": "contrast sensitivity", "setting": "[6]; [7]", "result": "improved"},
      {"measurement": "visual acuity", "setting": "[6]; [7]", "result": "improved"}
    ]}
  ]
}
